Patent US9861103B2, “Combination of pethoxamid and picloram” (CHEMINOVA A/S, priority 2013, dated 2018)

System: Galium aparine
Test: Field trials in winter oilseed rape: visually estimated weed control of Galium aparine, synergy by the Colby method
Type: in vivo
Settings: pethoxamid 1200 g a.i/ha, picloram 23 g a.i/ha, A + B 1200 + 23 g/ha
Text: Two field trials are established in commercial fields of winter oilseed rape Brassica napus, at sites known to contain natural populations of broad-leaved weeds, including Galium aparine. Plots, with a minimum size of 18 m^2, are arranged with three replicates per treatment.
At each trial, each treatment is applied using a small plot sprayer fitted with flatfan nozzles in a spray volume of 200 l/ha at one of three treatment timings: Timing A—early post-emergence of the oilseed rape, when the crop is at cotyledon to one true leaf stage (BBCH10/11) and pre-emergence of G. aparine; Timing B—when the crop has two true leaves (BBCH 12) of the crop and at emergence of G. aparine (BBCH09-10). Full application details are recorded, including weather and soil conditions, as well as growth stages and populations of crop and weed species.
Weed control is then assessed by visually estimating the control, as a percentage, relative to the ground cover and vigour of each weed species in the untreated plots. The weed control evaluation is made at 24-27 days, 40-46 days, 54-60 days and 75-81 days after treatment Timing A.
The data is then analysed using the Colby method to determine synergy.

[1] = Timing A (crop BBCH10/11, pre-emergence of G. aparine), 24-27 days after Timing A
[2] = Timing A (crop BBCH10/11, pre-emergence of G. aparine), 40-46 days after Timing A
[3] = Timing A (crop BBCH10/11, pre-emergence of G. aparine), 54-60 days after Timing A
[4] = Timing A (crop BBCH10/11, pre-emergence of G. aparine), 75-81 days after Timing A
[5] = Timing B (crop BBCH 12, at emergence of G. aparine BBCH09-10), 24-27 days
[6] = Timing B (crop BBCH 12, at emergence of G. aparine BBCH09-10), 40-46 days
[7] = Timing B (crop BBCH 12, at emergence of G. aparine BBCH09-10), 75-81 days

Compound	Weed control (visual estimate relative to untreated plots) [1] [%]	Weed control (visual estimate relative to untreated plots) [2] [%]	Weed control (visual estimate relative to untreated plots) [3] [%]	Weed control (visual estimate relative to untreated plots) [4] [%]	Weed control (visual estimate relative to untreated plots) [5] [%]	Weed control (visual estimate relative to untreated plots) [6] [%]	Weed control (visual estimate relative to untreated plots) [7] [%]
Nc1c(Cl)c(Cl)nc(C(=O)O)c1Cl [picloram]	0	0	30	30	10	6.67	43.33
CCOCCN(C(=O)CCl)C(=C(C)C)c1ccccc1 [pethoxamid]	56.67	20	43.33	23.33	20	6.67	50
